The values that follow come from US20170204187A1, “METHODS OF TREATING AND PREVENTING CANCER DRUG RESISTANCE” (Genentech, Inc., priority 2014, published 2017).

The subject of one assay is LOX-IMVI VemR cell line. The assay is described as follows: LOX-IMVI VemR resensitization to vemurafenib by FGFR antagonists (FIG. 2B). In kind it is cell-based. To be noted: 5 μM vemurafenib (PLX) alone, DMSO plot. As for the experimental part:
FIG. 2A-E.|A cell line (“LOX-IMVI VemR”) was engineered to be resistant to vemurafienib. A, An image of an immunoblot of 11 cell lines probed for FGFR1 expression. B, The LOX-IMVI VemR cell line is not affected by 5 μM vemurafenib (i.e., “PLX”) as shown in the DMSO plot; however, the cell line is affected by 5 μM vemurafenib in combination with an antagonist of FGFR signalling (i.e., BGJ398, PD173074, and AP24534).
The Lox-IMVI VemR cell line was used as the model of acquired resistance in B-raf mutant melanoma. 11 cell lines were tested for FGFR1 expression using a Western blot. Of the cell lines tested, FGFR1 expression was detected in the LOX-IMVI (vemurafenib sensitive) and LOX-IMVI VemR (vemurafenib resistant) lines (FIG. 2A).

The subject of another assay is LOX-IMVI VemR cells. Nature of the assay: In vitro combination study vemurafenib + BGJ398, Vem-resistant cell outgrowth (FIG. 3A). In kind it is cell-based. The conditions noted are these: single agent alone.
The next assay concerns LOX-IMVI tumors. The assay is described as follows: In vivo tumor volume, parental vemurafenib sensitive tumors. To be noted: vemurafenib 25 mg/kg, BID alone. How it is done: (§1) FIG. 4A-C.|The LOX-IMVI VemR cell line has FGFR-mediated vemurafenib resistance in vivo. A, LOX-IMVI cells (parental cell line) are sensitive to vemurafenib.
(§2) The vemurafenib resistance and recovery of the LOX-IMVI VemR cell line was also studied in vivo. The tumor volume (mm^3) was measured in LOX-IMVI (parental, vemurafenib sensitive) tumors and in LOX-IMVI VemR (vemurafenib resistant) tumors in the presence of vemurafenib, BGJ398, or vemurafenib and BGJ398 ([…]).

In another assay the test system is LOX-IMVI VemR tumors. Nature of the assay: In vivo tumor volume, vemurafenib resistant tumors. The conditions noted are these: vemurafenib alone. As for the experimental part: as §1, §2
Assay [1] concerns 624 melanoma cells made resistant to PLX4032. The assay is described as follows: pAKT in PLX4032-resistant 624 melanoma cells (FIG. 8B-C). In kind it is cell-based. To be noted: treated with PLX4032. As for the experimental part:
FIG. 8 A-C.|Activation of PI3K represents an alternative mechanism of B-raf-mutant melanomas. A, A synthetic lethal chemical screen identified PI3K-dependent resistance to PLX4032. […] Co-treatment with a […] was needed to growth arrest the 624 ml VemR cells in the presence of PLX4032.

For another assay, the system named is B-raf mutant melanoma. The conditions noted are these: cited from earlier work.

“Also recorded” adds a separate entry of the source.

As to `CCCS(=O)(=O)Nc1ccc(F)c(C(=O)c2c[nH]c3ncc(-c4ccc(Cl)cc4)cc23)c1F` [vemurafenib, N-(3-{[5-(4-chlorophenyl)-1H-pyrrolo[2,3-b]pyridin-3-yl]carbonyl}-2,4-difluorophenyl)propane-1-sulfonamide], in the assay on LOX-IMVI VemR cell line, the “effect on the cell line” value is reported as “not affected”. In the assay on LOX-IMVI VemR cells, the response to treatment result is reported as “minimal response”. Moreover, in the assay on LOX-IMVI tumors, the tumor volume result is given as “tumor volume decreased; also recorded: sensitive”. Besides, the tumor volume entry with LOX-IMVI VemR tumors is “did not show a decrease in tumor volume”. Besides, the pAKT entry in assay [1] was “increase in pAKT”. Further, the “time to relapse following maximal response” value in the assay with B-raf mutant melanoma (majority of patients, residual tumor) is listed as no more than 1 year. Besides, in the assay on B-raf mutant melanoma (patients), the patients who respond result is “majority” and the “patients with tumor progression early in therapy” value is given as 10%.
